Molecules are shown by their SMILES. Converted amounts (≈) assume the structure as drawn. The source made the active and inactive calls. The rule behind the calls is not given here. Bounds are passed on as bounds.

The subject of one data set is Kocuria rhizophila. Description: Antibacterial activity against Kocuria rhizophila KB212 assessed as bacterial growth inhibition by paper disc method. It is filed as functional.
Data set [1] concerns Bacillus subtilis. The data set is described as follows: Antibacterial activity against Bacillus subtilis KB211 assessed as bacterial growth inhibition by paper disc method. It counts as functional.
For data set [2], the system named is Bacillus subtilis. The data set is described as follows: Antibacterial activity against Bacillus subtilis KB211 at 1 to 30 ug paper disc by paper disc method. Particulars: dose 1-30 µg. It is filed as functional, organism-based.
For data set [3], the system named is Staphylococcus aureus. The data set is described as follows: Antibacterial activity against Staphylococcus aureus KB210 at 1 to 30 ug per disc by paper disc method. It counts as functional, organism-based. Particulars: dose 1-30 µg.
The next data set has as its system Micrococcus luteus. Description: Antibacterial activity against Micrococcus luteus KB212 at 1 to 30 ug per disc by paper disc method. Particulars: dose 1-30 µg. It counts as functional, organism-based.
Data set [4] deals with Xanthomonas campestris pv. oryzae. Description: Antibacterial activity against Xanthomonas campestris pv. oryzae KB88 at 1 to 30 ug per disc by paper disc method. It is filed as functional, organism-based. Particulars: dose 1-30 µg.
Data set [5] has as its system Staphylococcus aureus. The data set is described as follows: Antibacterial activity against Staphylococcus aureus KB210 assessed as bacterial growth inhibition by paper disc method. It counts as functional.
In data set [6] the test system is Xanthomonas campestris pv. oryzae. Description: Antibacterial activity against Xanthomonas campestris pv. oryzae KB88 assessed as bacterial growth inhibition by paper disc method. It counts as functional.
Data set [7] relates to Escherichia coli. Description: Antibacterial activity against Escherichia coli NBRC 3972 assessed as bacterial growth inhibition by paper disc method. It is filed as functional.
The next data set relates to HeLa S3. Description: Cytotoxicity against human HeLa S3 cells assessed as cell growth inhibition and measured after 2 days by WST-8 assay. Particulars: HeLa S3, 48 h. It is filed as functional, cell-based. On the technique in general: Tetrazolium assays rely on reduction of a dye to a coloured formazan, in cell work by metabolically active cells.
A further data set concerns HT-29. The data set is described as follows: Cytotoxicity against human HT-29 cells assessed as cell growth inhibition and measured after 2 days by WST-8 assay. It counts as functional, cell-based. Particulars: HT-29, 48 h.
In a further data set the test system is A549. Description: Cytotoxicity against human A549 cells assessed as cell growth inhibition and measured after 2 days by WST-8 assay. It is filed as functional, cell-based. Particulars: A549, 48 h.
A further data set relates to NCI-H1299. Description: Cytotoxicity against human NCI-H1299 cells assessed as cell growth inhibition and measured after 2 days by WST-8 assay. It counts as functional, cell-based. Particulars: NCI-H1299, 48 h.
For the next data set, the system named is PANC-1. Description: Cytotoxicity against human PANC-1 cells assessed as cell growth inhibition and measured after 2 days by WST-8 assay. It is filed as functional, cell-based. Particulars: PANC-1, 48 h.
The subject of data set [8] is Plasmodium falciparum. Description: Antimalarial activity against chloroquine-resistant Plasmodium falciparum K1 assessed as parasite growth inhibition and measured after 72 hrs by ELISA. It is filed as functional, organism-based. Particulars: K1, 72 h. (In an ELISA, binding on a coated surface is turned into a signal by an enzyme label.)
Data set [9] has as its system Plasmodium falciparum. The data set is described as follows: Antimalarial activity against chloroquine-sensitive Plasmodium falciparum FCR3 assessed as parasite growth inhibition and measured after 72 hrs by ELISA. It is filed as functional, organism-based. Particulars: FCR3, 72 h.
Data set [10] can be described thus: Cytotoxicity against human MRC5 cells assessed as cell growth inhibition and measured after 2 days by WST-8 assay. It is filed as toxicity, cell-based.
Data set [11] in a line: Selectivity index, ratio of IC50 for cytotoxicity against human MRC5 cells to IC50 for antimalarial activity against chloroquine-resistant Plasmodium falciparum K1. It counts as toxicity, cell-based. Particulars: MRC5 cells versus Plasmodium falciparum K1, read-out: Ratio IC50.
Data set [12] in a line: Selectivity index, ratio of IC50 for cytotoxicity against human MRC5 cells to IC50 for antimalarial activity against […] Plasmodium falciparum FCR3. It is filed as toxicity, cell-based. Particulars: MRC5 cells versus Plasmodium falciparum FCR3, read-out: Ratio IC50.
Data set [13] deals with Escherichia coli. The data set is described as follows: Antibiofilm activity against Escherichia coli NBRC 3972 assessed as inhibition of biofilm formation at 15 to 60 ug/ml incubated overnight by crystal violet staining based ELISA. Particulars: dose 15-60 µg/ml; at 15 to 60 µg/mL. It is filed as functional.
Data set [14] has as its system Escherichia coli. Description: Bactericidal activity against Escherichia coli NBRC 3972. It is filed as functional.

One may read the MIC as the lowest concentration that inhibits growth of the organism. As a reminder, the IC50 is the midpoint of a concentration-inhibition curve. On to `COc1c2c(c(O)c3c(=O)c4cccc(O)c4oc13)-c1c(cc3cc(C)[nH]c(=O)c3c1O)C[C@H]2O`, for which the MIC in the data set on Kocuria rhizophila was 0.25 µg/mL (≈ 0.528 µM); in the data set with Bacillus subtilis [1], 0.25 µg/mL (≈ 0.528 µM); in the data set with Staphylococcus aureus [5] it was 0.25 µg/mL (≈ 0.528 µM); in data set [6], 0.25 µg/mL (≈ 0.528 µM); in the data set on Escherichia coli [7] it was above 250 µg/mL. In addition, the outcome (with Bacillus subtilis [2]; in the data set with Staphylococcus aureus [3]; with Micrococcus luteus; in data set [4]) was Active. In addition, the IC50 in the data set with HeLa S3 stood at 2180 nM; with HT-29, 1900 nM; with A549 it was 1860 nM; with NCI-H1299, 10600 nM; in the data set on PANC-1 it was 12900 nM; in the data set on Plasmodium falciparum [8], 270 nM. In the data set with Plasmodium falciparum [9], the IC50 was 200 nM. For the same molecule, the IC50 at 2 days in [10] was determined as 170 nM. For the same molecule, the selectivity ratio in [11] came out at 0.62; in [12] it was 0.85. Also, in the data set on Escherichia coli [13], the “inhibition (INH)” value is recorded as 50%. Moreover, the Activity with Escherichia coli [14] was above 250 µg/mL.

Turning to `CCN(CC)CCCC(C)Nc1ccnc2cc(Cl)ccc12` (configuration not stated) [CHLOROQUINE], the IC50 at 2 days in [10] came to 58200 nM.

For `C[C@@H]1CC[C@H]2[C@@H](C)C(=O)O[C@@H]3O[C@@]4(C)CC[C@@H]1[C@]32OO4` [ARTEMISININ], the values for the IC50 with Plasmodium falciparum [8] and with Plasmodium falciparum [9] were 30 nM and 20 nM, respectively. Also, in data set [10], the IC50 at 2 days stood at 50300 nM. Moreover, the selectivity ratio was found to be 1580 in data set [11] and 2030 in data set [12].

Values taken from ChEMBL document CHEMBL5137019, “Sattahipmycin, a Hexacyclic Xanthone Produced by a Marine-Derived Streptomyces” (J Nat Prod, 2022).
